Literature values, collected in paper PMC2667333 (Molecular cell, 2009).

Tested on: calcineurin (CN)
Settings: ref Swanson et al., 1992; Yin and Ochs, 2003

Molecule: C=CC[C@@H]1/C=C(\C)C[C@H](C)C[C@H](OC)[C@H]2O[C@@](O)(C(=O)C(=O)N3CCCC[C@H]3C(=O)O[C@H](/C(C)=C/[C@@H]3CC[C@@H](O)[C@H](OC)C3)[C@H](C)[C@@H](O)CC1=O)[C@H](C)C[C@@H]2OC [FK506]
- effect on CN-mediated pNPP dephosphorylation: increase CN-mediated pNPP dephosphorylation

Molecule: cyclosporin A [CsA]
- effect on CN-mediated pNPP dephosphorylation: increase CN-mediated pNPP dephosphorylation
